# Measurements published in US20260374754A1, “N-((ISOQUINOLIN-6-YL)METHYL)-1H-PYRAZOLE-4-CARBOXAMIDE DERIVATIVES AS PLASMA KALLIKREIN INHIBITORS FOR THE TREATMENT OF HEREDITARY ANGIODEMA” (Takeda Pharmaceutical Company Limited, priority 2022, published 2026).
# Where a name gives a salt, the structure may show the parent alone.
# Biological target: human activated kallikrein enzyme (Homo sapiens, UniProt P03952)
# Assay: Inhibition of human activated plasma kallikrein, fluorogenic PFR-AMC substrate, 500 pM enzyme format
# Assay type: biochemical
# Settings: 500 pM activated kallikrein; 300 μM PFR-AMC; 30 min preincubation; 10 min room temperature; pH 7.5; read-out: Primary Dose Response Assay: Average EC50
# Summary of the method: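 Using fluorogenic PFR-AMC at 300 μM, cleavage by 500 pM human activated kallikrein ran 10 min at room temperature, read at 460 nm emission (380 nm excitation). Enzyme and compounds were first preincubated 30 min in 20 mM Tris pH 7.5, 150 mM NaCl, 1 mM EDTA, 0.1% PEG-400, 0.1% Triton X-100.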
# Sequence of human activated kallikrein enzyme (P03952 391-638 limits assumed): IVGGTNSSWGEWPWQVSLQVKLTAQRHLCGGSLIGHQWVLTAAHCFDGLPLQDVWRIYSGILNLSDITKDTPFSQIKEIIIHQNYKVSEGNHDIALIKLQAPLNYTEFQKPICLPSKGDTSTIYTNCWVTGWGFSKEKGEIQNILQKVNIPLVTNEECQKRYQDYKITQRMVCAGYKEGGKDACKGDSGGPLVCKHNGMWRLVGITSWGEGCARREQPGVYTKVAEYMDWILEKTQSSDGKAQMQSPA
# Sequence of human activated kallikrein enzyme (P03952 20-390 partner limits assumed): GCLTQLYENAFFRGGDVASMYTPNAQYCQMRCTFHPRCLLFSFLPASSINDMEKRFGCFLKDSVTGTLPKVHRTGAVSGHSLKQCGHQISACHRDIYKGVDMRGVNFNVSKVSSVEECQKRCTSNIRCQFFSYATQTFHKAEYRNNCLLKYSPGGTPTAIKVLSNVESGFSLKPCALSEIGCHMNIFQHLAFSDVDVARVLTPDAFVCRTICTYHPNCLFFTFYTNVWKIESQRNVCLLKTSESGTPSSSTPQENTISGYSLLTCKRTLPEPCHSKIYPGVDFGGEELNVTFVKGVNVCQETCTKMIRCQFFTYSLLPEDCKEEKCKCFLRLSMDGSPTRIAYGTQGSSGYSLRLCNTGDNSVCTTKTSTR
row,Structure (SMILES),EC50 [nM]
1,"Cc1cc2c(N)nccc2c(C)c1CNc1cc(NCc2ccc3ncccc3c2)ncn1 [Example 337, N^4-((1-amino-5,7-dimethylisoquinolin-6-yl)methyl)-N^6-(quinolin-6-ylmethyl)pyrimidine-4,6-diamine]",1 to 10
2,"Cc1cc2c(N)nccc2c(C)c1CNc1cc(NCc2ccc(Cc3cnccn3)cc2)ncn1 [Example 338, N^4-((1-amino-5,7-dimethylisoquinolin-6-yl)methyl)-N^6-(4-(pyrazin-2-ylmethyl)benzyl)pyrimidine-4,6-diamine]",1 to 10
3,"Cc1cc2c(N)nccc2c(C)c1CNc1cc(NCc2ccc(C3CC3)cc2)ncn1 [Example 339, N^4-((1-amino-5,7-dimethylisoquinolin-6-yl)methyl)-N^6-(4-cyclopropylbenzyl)pyrimidine-4,6-diamine]",10 to 100
4,"Cc1cc2c(N)nccc2c(C)c1CNc1cc(NCc2ccccc2)ncn1 [Example 341, N^4-((1-amino-5,7-dimethylisoquinolin-6-yl)methyl)-N^6-benzylpyrimidine-4,6-diamine]",100 to 1000
5,"Cc1cc2c(N)nccc2c(C)c1CNc1cc(NCc2ccc(Cc3ncnn3C)cc2)ncn1 [Example 342, N^4-((1-amino-5,7-dimethylisoquinolin-6-yl)methyl)-N^6-(4-((1-methyl-1H-1,2,4-triazol-5-yl)methyl)benzyl)pyrimidine-4,6-diamine]",< 1
6,"Cc1nnc(Cc2ccc(CNc3cc(NCc4c(C)cc5c(N)nccc5c4C)ncn3)cc2)s1 [Example 343, N^4-((1-amino-5,7-dimethylisoquinolin-6-yl)methyl)-N^6-(4-((5-methyl-1,3,4-thiadiazol-2-yl)methyl)benzyl)pyrimidine-4,6-diamine]",> 1000
7,"Cc1cc2c(N)nccc2c(C)c1CNc1cc(NCc2ccc(OCC(=O)N3CC4CC4C3)cc2)ncn1 (centres unmarked) [Example 344, 2-(4-(((6-(((1-amino-5,7-dimethylisoquinolin-6-yl)methyl)amino)pyrimidin-4-yl)amino)methyl)phenoxy)-1-(3-azabicyclo[3.1.0]hexan-3-yl)ethan-1-one, formic acid salt]",< 1
8,"Cc1cc2c(N)nccc2c(C)c1CNc1cc(NCc2ccc(OCC(=O)N3CCCC3)cc2)ncn1 [Example 345, 2-(4-(((6-(((1-amino-5,7-dimethylisoquinolin-6-yl)methyl)amino)pyrimidin-4-yl)amino)methyl)phenoxy)-1-(pyrrolidin-1-yl)ethan-1-one]",< 1
9,"Cc1cc2c(N)nccc2c(C)c1CNc1cc(NCc2ccc(OCC(=O)N3CCCCC3)cc2)ncn1 [Example 346, 2-(4-(((6-(((1-amino-5,7-dimethylisoquinolin-6-yl)methyl)amino)pyrimidin-4-yl)amino)methyl)phenoxy)-1-(piperidin-1-yl)ethan-1-one]",1 to 10
10,"Cc1cc2c(N)nccc2c(C)c1CNc1cc(NCc2ccc(OCC(=O)N3CCC3)cc2)ncn1 [Example 347, 2-(4-(((6-(((1-amino-5,7-dimethylisoquinolin-6-yl)methyl)amino)pyrimidin-4-yl)amino)methyl)phenoxy)-1-(azetidin-1-yl)ethan-1-one, formic acid salt]",< 1
11,"Cc1cc2c(N)nccc2c(C)c1CNc1cc(NCc2cc(C)c(OCC(=O)N(C)C)c(C)c2)ncn1 [Example 348, 2-(4-(((6-(((1-amino-5,7-dimethylisoquinolin-6-yl)methyl)amino)pyrimidin-4-yl)amino)methyl)-2,6-dimethylphenoxy)-N,N-dimethylacetamide]",1 to 10
12,"Cc1cc2c(N)nccc2c(C)c1CNc1cc(NCc2ccc(OCc3ccccn3)cc2)ncn1 [Example 349, N^4-((1-amino-5,7-dimethylisoquinolin-6-yl)methyl)-N^6-(4-(pyridin-2-ylmethoxy)benzyl)pyrimidine-4,6-diamine, formic acid salt]",1 to 10
13,"Cc1cc2c(N)nccc2c(C)c1CNc1cc(NCc2ccc(Cc3cscn3)cc2)ncn1 [Example 350, N^4-((1-amino-5,7-dimethylisoquinolin-6-yl)methyl)-N^6-(4-(thiazol-4-ylmethyl)benzyl)pyrimidine-4,6-diamine]",< 1
14,"Cc1cc2c(N)nccc2c(C)c1CNc1cc(NCc2ccc(OCc3ncco3)cc2)ncn1 [Example 351, N^4-((1-amino-5,7-dimethylisoquinolin-6-yl)methyl)-N^6-(4-(oxazol-2-ylmethoxy)benzyl)pyrimidine-4,6-diamine, formic acid salt]",1 to 10

# The remaining lines, values ahead:
row,EC50 [nM],Structure (SMILES)
1,10 to 100,"Cc1cc2c(N)nccc2c(C)c1CNc1cc(NCc2ccc(OC(F)(F)C(=O)N(C)C)cc2)ncn1 [Example 352, 2-(4-(((6-(((1-amino-5,7-dimethylisoquinolin-6-yl)methyl)amino)pyrimidin-4-yl)amino)methyl)phenoxy)-2,2-difluoro-N,N-dimethylacetamide]"
2,10 to 100,"Cc1cc2c(N)nccc2c(C)c1CNc1cc(NCc2cc(C)c(OCc3ccccn3)c(C)c2)ncn1 [Example 353, N^4-((1-amino-5,7-dimethylisoquinolin-6-yl)methyl)-N^6-(3,5-dimethyl-4-(pyridin-2-ylmethoxy)benzyl)pyrimidine-4,6-diamine, formic acid salt]"
3,10 to 100,"Cc1cc2c(N)nccc2c(C)c1CNc1cc(NCc2ccc(OC(C)(C)C(=O)N(C)C)cc2)ncn1 [Example 354, 2-(4-(((6-(((1-amino-5,7-dimethylisoquinolin-6-yl)methyl)amino)pyrimidin-4-yl)amino)methyl)phenoxy)-N,N,2-trimethylpropanamide, formic acid salt]"
4,1 to 10,"Cc1cc2c(N)nccc2c(C)c1CNc1cc(NCc2cc(C)c(OCc3nccs3)c(C)c2)ncn1 [Example 355, N^4-((1-amino-5,7-dimethylisoquinolin-6-yl)methyl)-N^6-(3,5-dimethyl-4-(thiazol-2-ylmethoxy)benzyl)pyrimidine-4,6-diamine, formic acid salt]"
5,< 1,"Cc1cc2c(N)nccc2c(C)c1CNc1cc(NCc2ccc(OCc3nccs3)cc2)ncn1 [Example 356, N^4-((1-amino-5,7-dimethylisoquinolin-6-yl)methyl)-N^6-(4-(thiazol-2-ylmethoxy)benzyl)pyrimidine-4,6-diamine]"
6,10 to 100,"Cc1cc2c(N)nccc2c(C)c1CNc1cc(NCc2ccc(OC3(C(=O)N(C)C)CC3)cc2)ncn1 [Example 357, 1-(4-( ((6-(((1-amino-5,7-dimethylisoquinolin-6-yl)methyl)amino)pyrimidin-4-yl)amino)methyl)phenoxy)-N,N-dimethylcyclopropane-1-carboxamide, formic acid salt]"
7,1 to 10,"Cc1cc2c(N)nccc2c(C)c1CNc1cc(NCc2ccc(Cc3cc[nH]n3)cc2)ncn1 [Example 358, N^4-(4-((1H-pyrazol-3-yl)methyl)benzyl)-N^6-((1-amino-5,7-dimethylisoquinolin-6-yl)methyl)pyrimidine-4,6-diamine]"
8,1 to 10,"Cc1cc2c(N)nccc2c(C)c1CNc1cc(NCc2ccc(Oc3ccccn3)cc2)ncn1 [Example 361, N^4-((1-amino-5,7-dimethylisoquinolin-6-yl)methyl)-N^6-(4-(pyridin-2-yloxy)benzyl)pyrimidine-4,6-diamine]"

# Same assay, conditions: Primary Dose Response Assay: Average EC50, 500 pM activated kallikrein; 300 μM PFR-AMC; 30 min preincubation; 10 min room temperature; pH 7.5
row,EC50 [nM],Structure (SMILES)
1,< 1,"Cc1cc(CNc2cc(NCc3c(C)cc4c(N)nccc4c3C)ncn2)cc(C)c1CC(=O)N1CC2CC2C1 (centres unmarked) [Example 359, 2-(4-(((6-(((1-amino-5,7-dimethylisoquinolin-6-yl)methyl)amino)pyrimidin-4-yl)amino)methyl)-2,6-dimethylphenyl)-1-(3-azabicyclo[3.1.0]hexan-3-yl)ethan-1-one]"
